Laboratory results as given in patent US20260083702A1, “INHALATION FORMULATION FOR TREATING IPF DISEASE AND PREPARATION METHOD THEREFOR” (SUZHOU INHAL PHARMA CO., LTD., priority 2023, published 2026).

Tests used:
[1] = test system: mice with pulmonary fibrosis; test: HE staining of lungs in bleomycin pulmonary fibrosis model (Experimental Example 2); assay type: in vivo, C57BL6J mice; details: FIG. 3; for alveolar structure (HE staining): compared with the model group
Excerpt: (§1) Establishment of pulmonary fibrosis model: 6-8 week old C57BL6J mice were selected and acclimatized for one week. In the model group, apremilast inhalation (Example 2) treatment group, roflumilast inhalation (Example 5) treatment group, crisaborole inhalation (Example 3) treatment group, apremilast oral administration treatment group (Comparative Example 1), and nintedanib oral administration treatment group (Comparative Example 2, nintedanib is a commonly used drug for treating IPF in the prior art), the animals were treated with bleomycin solution (3 mg/kg/50 μl) via intratracheal instillation on the first day, and in the control group, the animals were treated with an equal volume of physiological saline. Treatment started one week later and lasted for two weeks, and a total of three weeks was required. The bleomycin solution was prepared by mixing bleomycin dry powder with sterile PBS to reach the required concentration (non-surgical method of intratracheal injection of bleomycin into mouse lungs: the mice were anesthetized with isoflurane and suspended on a surgical stent at a 70° angle. Bleomycin was administered via intratracheal instillation using a 200 μl pipette).
(§2) HE staining and MASSON staining: Mouse lung tissue was fixed in 4% paraformaldehyde for 24 h, rinsed with running water overnight, dehydrated with alcohol conventionally, embedded in paraffin, cut into 5 μm sections, and stained with HE and MASSON respectively. After clearing with xylene, the sections were mounted with neutral resin. The pathological changes in the lungs were observed and photographed under an optical microscope.

[2] = test system: mice with pulmonary fibrosis; test: MASSON staining of lungs in bleomycin pulmonary fibrosis model (Experimental Example 4); assay type: in vivo, C57/BL6J mice; details: FIG. 7; for collagen fibers / collagen deposition (MASSON staining): compared with the model group; for lung damage / pathological changes (MASSON staining): inhalation groups compared with model group, oral groups compared with inhalation groups
Excerpt: (§3) Establishment of pulmonary fibrosis model: 6-8 week old C57/BL6J mice were selected and acclimatized for one week. The mice were divided into blank control group, model group, apremilast inhalation (Example 2) treatment group, roflumilast inhalation (Example 5) treatment group, crisaborole inhalation (Example 3) treatment group, ibudilast inhalation (Example 10) treatment group, difamilast inhalation (Example 9) treatment group, ibudilast oral administration (Comparative Example 3) treatment group, difamilast oral administration (Comparative Example 4) treatment group, and nintedanib oral administration (Comparative Example 2, nintedanib is a commonly used drug for treating IPF in the prior art) treatment group, with n=8 in each group. On the first day, the mice in the model group and the treatment groups were administered bleomycin solution (3 mg/kg/50 μl) via tracheal instillation, while the control group was treated with an equal volume of physiological saline. Treatment began in each treatment group one week later and lasted for two weeks, and a total of three weeks was required. The bleomycin solution was prepared by mixing bleomycin dry powder with sterile PBS to reach the required concentration (non-surgical method of intratracheal injection of bleomycin into mouse lungs: the mice were anesthetized by inhaling isoflurane, and suspended on a surgical stent at a 70° angle, and bleomycin was administered via intratracheal instillation using a 200 μl pipette).
as §2, with “as usual,” for “conventionally,”, “paraffin, then serially” for “paraffin,”, “sections (5 μm),” for “5 μm sections,”, “sections” for “pathological changes in the lungs”

[3] = test system: mice with pulmonary fibrosis; test: HE staining of lungs in bleomycin pulmonary fibrosis model (Experimental Example 4); assay type: in vivo, C57/BL6J mice; details: FIG. 8; for alveolar structure (HE staining): compared with the model group
Excerpt: as §3
as §2, with “as usual,” for “conventionally,”, “paraffin, then serially” for “paraffin,”, “sections (5 μm),” for “5 μm sections,”, “sections” for “pathological changes in the lungs”

[4] = test system: mice with pulmonary fibrosis; test: Detection of MDA and HYP content in the lungs, bleomycin pulmonary fibrosis model (Experimental Example 4); assay type: in vivo, C57/BL6J mice; details: compared with model group; FIG. 9
Excerpt: as §3
(§4) Detection of malondialdehyde (MDA) and hydroxyproline (HYP) content in the lungs: An appropriate amount of lung tissue was taken from the mice in each group, homogenized (the ground tissue was centrifuged at 3000 rpm for 10 min and the supernatant was taken for later use), and the MDA and HYP content in the lungs was detected according to the kit instructions (MDA stands for malondialdehyde, a product of lipid peroxidation that reflects oxidative damage; HYP (hydroxyproline) level reflects the degree of fibrotic deposition in the lungs).
(§5) Statistical analysis: The results were statistically analyzed using Graphpad Prism 9.0 software for the experimental data of each group. All experimental data underwent normality test. The measurement data were expressed as mean±standard deviation (mean±SD). One-way ANOVA was used to compare the means of multiple groups of samples. P<0.05 is considered statistically significant.

[5] = test system: mice with pulmonary fibrosis; test: Weight measurement in bleomycin pulmonary fibrosis model (Experimental Example 4); assay type: in vivo, C57/BL6J mice; details: FIGS. 5 and 6
Excerpt: as §3
(§6) Weight measurement: The weight of mice was measured and recorded at a fixed time on the morning each week, and the weight changes of mice in each group at different times were observed.
as §5

[6] = test system: mice with pulmonary fibrosis; test: MASSON staining of lungs in bleomycin pulmonary fibrosis model (Experimental Example 2); assay type: in vivo, C57BL6J mice; details: FIG. 2; for collagen fibers / collagen deposition (MASSON staining): compared with the model group; for pathological changes in the lungs (MASSON staining): inhalation groups compared with model group, oral groups compared with inhalation groups
Excerpt: as §1, §2

[7] = test system: mice with pulmonary fibrosis; test: Weight measurement in bleomycin pulmonary fibrosis model (Experimental Example 2); assay type: in vivo, C57BL6J mice; details: compared with the model group; bleomycin 3 mg/kg intratracheal, treatment from week 1 for two weeks; FIG. 1
Excerpt: as §1, with “The bleomycin solution was prepared by mixing bleomycin dry powder with sterile PBS to reach the required concentration (non-surgical method of intratracheal injection of bleomycin into mouse lungs: the mice were anesthetized with isoflurane and suspended on a surgical stent at a 70° angle. Bleomycin was administered via intratracheal instillation using a 200 μl pipette).” left out
as §6
Statistical analysis: The results were statistically analyzed using Graphpad Prism 9.0 software for the experimental data of each group. […] The measurement data were expressed as mean #standard deviation (mean±SD). […]

[8] = test system: mice with pulmonary fibrosis; test: Detection of MDA and HYP content in the lungs, bleomycin pulmonary fibrosis model (Experimental Example 2); assay type: in vivo, C57BL6J mice; details: compared with model group; FIG. 4
Excerpt: as §1
as §4, with “instructions. MDA” for “instructions (MDA”, “damage, while” for “damage;”, “stands for hydroxyproline level, which” for “(hydroxyproline) level”, “level” for “degree”, “pulmonary fibrosis.” for “fibrotic deposition in the lungs).”
as §5, with “mean #standard” for “mean±standard”

[9] = 14th day compared to the 7th day after model establishment

Compound | inflammatory cell infiltration (HE staining) [1] | alveolar structure (HE staining) [1] | collagen fibers / collagen deposition (MASSON staining) [2] | lung damage / pathological changes (MASSON staining) [2] | inflammatory cell infiltration (HE staining) [3] | alveolar structure (HE staining) [3] | HYP content in the lungs (collagen deposition) [4] | MDA content in the lungs (oxidative stress level) [4] | weight recovery [5, 9] | weight recovery ([5]; compared with the model group) | collagen fibers / collagen deposition (MASSON staining) [6] | pathological changes in the lungs (MASSON staining) [6] | weight recovery [7] | HYP content in the lungs (collagen deposition) [8] | MDA content in the lungs (oxidative stress level) [8]
CCOc1cc([C@@H](CS(C)(=O)=O)N2C(=O)c3cccc(NC(C)=O)c3C2=O)ccc1OC [Comparative Example 1, apremilast] | a few inflammatory cell infiltrations | improved alveolar structure | reduced collagen deposition | slightly thickened alveolar interstitium and a few visible collagen fibers | a few inflammatory cell infiltrations | improved the alveolar structure | slight downward trend, but this did not have statistical significance | slight downward trend, but this did not have statistical significance | significant weight recovery | significant weight recovery | reduced collagen deposition | slightly thickened alveolar interstitium and a few visible collagen fibers | significant weight recovery | slight tendency to alleviate MDA and HYP in the lungs, but the results were not statistically significant | slight tendency to alleviate MDA and HYP in the lungs, but the results were not statistically significant
COC(=O)c1ccc2c(c1)NC(=O)/C2=C(\Nc1ccc(N(C)C(=O)CN2CCN(C)CC2)cc1)c1ccccc1 [Comparative Example 2, nintedanib] | a few inflammatory cell infiltrations | improved alveolar structure | reduced collagen deposition | slightly thickened alveolar interstitium and a few visible collagen fibers | a few inflammatory cell infiltrations | improved the alveolar structure | slight downward trend, but this did not have statistical significance | slight downward trend, but this did not have statistical significance | did not show significant body recovery | no significant difference in weight recovery | reduced collagen deposition | slightly thickened alveolar interstitium and a few visible collagen fibers | no significant difference in weight recovery | slight tendency to alleviate MDA and HYP in the lungs, but the results were not statistically significant | slight tendency to alleviate MDA and HYP in the lungs, but the results were not statistically significant
CCOc1ccccc1C(=O)NCc1coc(-c2ccc(OC(F)F)c(OC(C)C)c2)n1 [Comparative Example 4, difamilast] |  |  | reduced collagen deposition | slightly thickened alveolar interstitium and a few visible collagen fibers | a few inflammatory cell infiltrations | improved the alveolar structure | slight downward trend, but this did not have statistical significance | slight downward trend, but this did not have statistical significance | significant weight recovery | significant weight recovery |  |  |  |  | 
